PubChem BioAssay (NCI)
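Briefly, cells in 96-well plates were exposed to five compound concentrations for 48 h, and endpoints were estimated by linear interpolation. Here, GI50 denotes the concentration required for 50% inhibition of growth. TGI denotes the concentration required for complete inhibition of growth.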

Legend:
Assay in all cases: DTP human tumour cell line panel, 48 h
[1] = system: UACC-62 melanoma
[2] = system: NCI-H460 lung
[3] = system: T-47D breast
[4] = system: K-562 leukemia
[5] = system: SK-MEL-28 melanoma
[6] = system: UO-31 renal
[7] = system: UACC-257 melanoma
[8] = system: CAKI-1 renal
[9] = system: NCI-H522 lung
[10] = system: HOP-92 NSCLC
[11] = system: SW-620 colon
[12] = system: MOLT-4 leukemia
[13] = system: COLO 205 colon
[14] = system: SK-MEL-5 melanoma
[15] = system: DU-145 prostate
[16] = system: BT-549 breast
[17] = system: SF-295 CNS
[18] = system: IGROV1 ovarian
[19] = system: OVCAR-4 ovarian
[20] = system: SR leukemia
[21] = system: M14 melanoma
[22] = system: HS 578T breast
[23] = system: RPMI-8226 leukemia
[24] = system: A549 NSCLC
[25] = system: SNB-19 CNS
[26] = system: OVCAR-8 ovarian
[27] = system: RXF 393 renal
[28] = system: 786-0 renal
[29] = system: NCI-H23 lung
[30] = system: ACHN renal
[31] = system: U251 CNS
[32] = system: NCI/ADR-RES ovarian
[33] = system: SK-MEL-2 melanoma
[34] = system: SNB-75 CNS
[35] = system: NCI-H226 lung
[36] = system: HCT-116 colon
[37] = system: HL-60(TB) leukemia
[38] = system: MCF7 breast
[39] = system: CCRF-CEM leukemia
[40] = system: SK-OV-3 ovarian
[41] = system: HCT-15 colon
[42] = system: PC-3 prostate
[43] = system: LOX IMVI melanoma
[44] = system: MDA-MB-435
[45] = system: SN12C renal
[46] = system: HOP-62 NSCLC
[47] = system: MDA-MB-231 breast
[48] = system: SF-539 CNS
[49] = system: KM12 colon
[50] = system: EKVX NSCLC
[51] = system: TK-10 renal
[52] = system: HCC-2998 colon
[53] = system: A498 renal
[54] = system: OVCAR-3 ovarian
[55] = system: SF-268 CNS
[56] = system: OVCAR-5 ovarian
[57] = system: HT29 colon
[58] = system: MALME-3M melanoma

## Nc1c(C(=O)Nc2ccccc2)sc2nc3c(cc12)CCCCCC3
[1]
  GI50: 428 nM
  TGI: 12900 nM
[2]
  GI50: 352 nM
  TGI: 3910 nM
[3]
  GI50: 892 nM
  TGI: 20500 nM
[4]
  GI50: 307 nM
  TGI: > 41300 nM
[5]
  GI50: 1100 nM
  TGI: 21800 nM
[6]
  GI50: 945 nM
  TGI: 11900 nM
[7]
  GI50: 3100 nM
  TGI: 28900 nM
[8]
  GI50: 526 nM
  TGI: 16000 nM
[9]
  GI50: 271 nM
  TGI: 1290 nM
[10]
  GI50: 523 nM
  TGI: 5100 nM
[11]
  GI50: 360 nM
  TGI: 50900 nM
[12]
  GI50: 422 nM
  TGI: > 50900 nM
[13]
  GI50: 307 nM
  TGI: 1480 nM
[14]
  GI50: 393 nM
  TGI: 9070 nM
[15]
  GI50: 445 nM
  TGI: 12300 nM
[16]
  GI50: 286 nM
  TGI: 4050 nM
[17]
  GI50: 291 nM
  TGI: 1690 nM
[18]
  GI50: 863 nM
  TGI: 19900 nM
[19]
  GI50: 1110 nM
  TGI: 15700 nM
[20]
  GI50: 138 nM
  TGI: 30900 nM
[21]
  GI50: 233 nM
  TGI: 3150 nM
[22]
  GI50: 529 nM
  TGI: 9640 nM
[23]
  GI50: 379 nM
  TGI: 15700 nM
[24]
  GI50: 467 nM
  TGI: 20100 nM
[25]
  GI50: 476 nM
  TGI: 24900 nM
[26]
  GI50: 478 nM
  TGI: 16700 nM
[27]
  GI50: 432 nM
  TGI: 2180 nM
[28]
  GI50: 551 nM
  TGI: 3930 nM
[29]
  GI50: 650 nM
  TGI: 16400 nM
[30]
  GI50: 887 nM
  TGI: 14000 nM
[31]
  GI50: 395 nM
  TGI: 7780 nM
[32]
  GI50: 332 nM
  TGI: 3320 nM
[33]
  GI50: 857 nM
  TGI: 8890 nM
[34]
  GI50: 241 nM
  TGI: 898 nM
[35]
  GI50: 652 nM
  TGI: 12700 nM
[36]
  GI50: 328 nM
  TGI: 4850 nM
[37]
  GI50: 299 nM
  TGI: 4550 nM
[38]
  GI50: 288 nM
  TGI: 11800 nM
[39]
  GI50: 345 nM
  TGI: > 100000 nM
[40]
  GI50: 465 nM
  TGI: 3000 nM
[41]
  GI50: 314 nM
  TGI: 14000 nM
[42]
  GI50: 440 nM
  TGI: > 100000 nM
[43]
  GI50: 772 nM
  TGI: > 49400 nM
[44]
  GI50: 68 nM
  TGI: 266 nM
[45]
  GI50: 1570 nM
  TGI: 60200 nM
[46]
  GI50: 648 nM
  TGI: 6970 nM
[47]
  GI50: 892 nM
  TGI: 43100 nM
[48]
  GI50: 231 nM
  TGI: 741 nM
[49]
  GI50: 398 nM
  TGI: 17600 nM
[50]
  GI50: 591 nM
  TGI: 25200 nM
[51]
  GI50: 883 nM
  TGI: 5200 nM
[52]
  GI50: 485 nM
[53]
  GI50: 248 nM
  TGI: 1310 nM
[54]
  GI50: 319 nM
  TGI: 1070 nM
[55]
  GI50: 1140 nM
  TGI: 20100 nM
[56]
  GI50: 699 nM
  TGI: 16900 nM
[57]
  GI50: 303 nM
  TGI: 1430 nM
[58]
  GI50: 1290 nM
  TGI: 19400 nM
